{"source": "patent US20260130370A1", "about": "“PLANT ACTIVATOR” (IBIDEN CO., LTD., priority 2021, published 2026)", "tested_on": "potherb mustard (“Mizuna”, Brassica rapa var. laciniifolia)", "test": "Evaluation of the Mizuna (potherb mustard) growth", "assay_type": "in vivo", "conditions": "0.05 mg/L foliar spraying (300 L/10a) 9 and 12 days after sowing, harvested 21 days after sowing", "protocol": "Dilutions were prepared by adding distilled water to the above-obtained trihydroxyoctadecaenoic acid solution, ketol fatty acid solution, and culture broth containing fatty acid metabolites, so that the final concentration of each of trihydroxyoctadecaenoic acid, ketol fatty acids, and fatty acid metabolites was 0.05 mg/L, and the resulting dilutions gave treatment solutions. A 72-well cell tray was filled with culture soil (TAKII & CO., LTD, trade name “Tanemaki Baido”), and the forced sprouting seeds of potherb mustard were sown in. After budding, the potherb mustard seedlings were thinned out for two plants per cell. Light condition was set for 12 hours for light period/12 hours for dark period. Water was supplied by irrigating with an appropriate amount of tap water about once every four days. 9 and 12 days after sowing, the plants were treated with foliar spraying by spraying each of the treatment solutions (300 L/10a) to the above-ground part of plants using a sprayer. The negative control was not subjected for the spraying of the treatment solution (“no treatment area”).\n21 days after sowing, the plants were harvested and the wet weight of the above-ground part of plants per plant and the leaf length were measured.", "data": [{"compound": "CC/C=C\\C/C=C\\CC(=O)C(O)CCCCCCCC(=O)O", "note": "(centres unmarked) [ketol fatty acid, 9-hydroxy-10-oxo-12 (Z), 15 (Z)-octadecadienoic acid]", "values": [{"measurement": "wet weight of the above-ground part", "setting": "average n=20, no treatment area 0.19 g/plant", "value": "little increase"}, {"measurement": "leaf length", "setting": "average n=20, no treatment area 8.1 cm", "value": "reduced"}]}]}
